The test system of series [1] is MCF-7 (breast adenocarcinoma). Nature of the series: SRB cancer cell growth assay, MCF-7. Format: cell-based, human. On the set-up: key to activity class MCF-7: highly active; b: moderately active; weakly active. As to conditions: for IC50: Homo sapiens, MCF7, MCF-7, 48 h exposure, SRB, read-out: IC50 (μg/mL) MCF-7. The protocol: (§1) The in vitro cytotoxic activity the newly synthesized compounds against human breast cell line (MCF7), non-small cell lung cancer NCI-H460, CNS cancer SF-268 and WI 38 (normal fibroblast cells) were evaluated using doxorubicin as the reference drug, according to the method reported by Skehan et al..
(§2) The newly synthesized compounds were evaluated in vitro against three human cancer cell lines; which are MCF-7 (breast adenocarcinoma), NCI-H460 (non-small cell lung cancer) and SF-268 (CNS cancer), and WI 38 (normal fibroblast cells) were used in this study. MCF-7 was obtained from the European Collection of Cell Cultures (ECACC, Salisbury, UK) but NCI-H460, SF-268 and WI 38 were kindly provided by the National Cancer Institute (NCI, Cairo, Egypt). They grow as monolayers routinely maintained in RPMI-1640 medium supplemented with 5% heat inactivated fetal bovine serum (FBS), 2 mM glutamine and antibiotics (penicillin 100 U/mL, streptomycin 100 µg/mL), at 37 °C in a humidified atmosphere containing 5% CO2. Exponentially growing cells were obtained by plating 1.5 × 10^5 cells/mL for MCF-7 and SF-268, and 0.75 × 10^4 cells/mL for NCI-H460 followed by 24 h of incubation. The effect of the vehicle solvent (DMSO) on the growth of these cell lines was evaluated in all experiments by exposing untreated control cells to the maximum concentration (0.5%) of DMSO used in each assay.
(§3) The effect of compounds on the in vitro growth of human tumor cell lines were evaluated according to the procedure adopted by the National Cancer Institute (NCI, […], USA) in the “In vitro Anticancer Drug Discovery Screen” that uses the protein-binding dye sulforhodamine B (SRB) to assess cell growth. In the assay protocol, all cells were incubated at 37 °C under humidified atmosphere containing 5% CO2. Briefly, exponentially cells growing in 96-well plates were then exposed for 48 h to five serial concentrations of each compound, starting from a maximum concentration of 150 μg/mL. Following this exposure period, adherent cells were fixed, washed and stained. The bound stain was solubilized and the absorbance was measured at 492 nm in a Power Wave XS plate reader (Bio-Tek Instruments Inc., Winston, NC, USA). For each test compound and cell line, a dose response curve was obtained and the inhibitory concentration of 50% (IC50), corresponding to the concentration of the compounds that inhibited 50% of the net cell growth was calculated as described elsewhere. Doxorubicin was used as a positive control and tested in the same manner.

The test system of series [2] is NCI-H460 (non-small cell lung cancer). Nature of the series: SRB cancer cell growth assay, NCI-H460. On the set-up: key to activity class NCI-H460: highly active; b: moderately active; weakly active. As to conditions: for IC50: Homo sapiens, NCI-H460, 48 h exposure, SRB, read-out: IC50 (μg/mL) NCI-H460. Format: cell-based, human. The protocol:
as §1, §2, §3

In a further series the test system is SF-268 (CNS cancer). Nature of the series: SRB cancer cell growth assay, SF-268. It is filed as cell-based, human. Set-up: key to activity class SF-268: highly active; b: moderately active; weakly active. As to conditions: for IC50: Homo sapiens, SF-268, 48 h exposure, SRB, read-out: IC50 (μg/mL) SF-268. As for the experimental part: as §1, §2, §3
For series [3], the system named is WI 38 (normal fibroblast cells). Nature of the series: SRB cell growth assay, normal cells WI 38. Format: cell-based, human. As to conditions: 48 h exposure, non-cytotoxic = IC50 > 100 μg/mL; for IC50: Homo sapiens. The protocol:
as §1, §2, §3

Converted amounts (≈) assume the structure as drawn.

`N#Cc1c(-c2ccc(F)cc2)cc(-c2ccc(Cl)cc2Cl)nc1NN=C1C(=O)Nc2ccccc21` [Compound 20, 6-(2,4-Dichlorophenyl)-4-(4-fluorophenyl)-2-[2-(2-oxoindolin-3-ylidene)hydrazinyl]nicotinonitrile] had a melting point of 268 to 269 °C. Besides, in series [1], the IC50 amounted to 0.66 ± 0.21 µg/mL (≈ 1.31 µM) and the “activity class MCF-7” value was “a”. Also, in series [2], the IC50 came out at 0.9 ± 0.12 µg/mL (≈ 1.79 µM) and the “activity class NCI-H460” value was “a”. In the series on SF-268 (CNS cancer), the IC50 turned out to be 2.34 ± 0.51 µg/mL (≈ 4.66 µM) and the “activity class SF-268” value is given as “a”. The same molecule came in with an IC50 in series [3] of 72.5 ± 2.4 µg/mL (≈ 144 µM).
For `COc1ccc(C=NNc2nc(-c3ccc(Cl)cc3Cl)cc(-c3ccc(F)cc3)c2C#N)cc1OC` [Compound 21d, 6-(2,4-Dichlorophenyl)-2-[2-(3,4-dimethoxybenzylidene)hydrazinyl]-4-(4-fluorophenyl) nicotinonitrile], the melting point was 278 to 280 °C. In series [1], the IC50 amounted to 66 ± 8.25 µg/mL (≈ 127 µM) and the “activity class MCF-7” value is recorded as “c”. In addition, in series [2], the IC50 came to 45 ± 10.5 µg/mL (≈ 86.2 µM) and the “activity class NCI-H460” value is on record as “c”. In the series on SF-268 (CNS cancer), the IC50 came out at 32.5 ± 6.04 µg/mL (≈ 62.2 µM) and the “activity class SF-268” value is on record as “b”. The “IC50 (μg/mL) WI 38” value in series [3] is reported as “non-cytotoxic”.
In the case of `N#Cc1c(-c2ccc(F)cc2)cc(-c2ccc(Cl)cc2Cl)nc1NCc1ccc2c(c1)OCO2` [Compound 13, 2-(Benzo[d][1,3]dioxol-5-ylmethylamino)-6-(2,4-dichlorophenyl)-4-(4-fluorophenyl)nicotinonitrile], the melting point is 149 to 151 °C. Further, in series [1], the IC50 stood at 16.3 ± 1.87 µg/mL (≈ 33 µM) and the “activity class MCF-7” value is listed as “b”. In addition, in series [2], the IC50 stood at 18.9 ± 1.03 µg/mL (≈ 38.4 µM) and the “activity class NCI-H460” value is recorded as “b”. In the series on SF-268 (CNS cancer), the IC50 worked out at 23.2 ± 4.12 µg/mL (≈ 47.2 µM) and the “activity class SF-268” value is “b”. Further, in series [3], the IC50 is 20.4 ± 4.99 µg/mL (≈ 41.4 µM).
On to `N#Cc1c(-c2ccc(F)cc2)cc(-c2ccc(Cl)cc2Cl)nc1OCC(=O)NN=Cc1ccc(F)cc1` [Compound 10, 2-[3-Cyano-6-(2,4-dichlorophenyl)-4-(4-fluorophenyl)pyridin-2-yloxy]-N′-(4-fluorobenzylidene)-acetohydrazide], for which the melting point was 219 to 221 °C. Moreover, in series [1], the IC50 was 30.6 ± 1.1 µg/mL (≈ 56.9 µM) and the “activity class MCF-7” value is recorded as “b”. Further, in series [2], the IC50 turned out to be 30.7 ± 1.64 µg/mL (≈ 57.1 µM) and the “activity class NCI-H460” value is “b”. In addition, in the series on SF-268 (CNS cancer), the IC50 was found to be 28.2 ± 8.83 µg/mL (≈ 52.4 µM) and the “activity class SF-268” value is on record as “b”. This molecule also gave an IC50 in series [3] of 19.8 ± 2.68 µg/mL (≈ 36.8 µM).

Values taken from article PMC6272992, “Synthesis and Cytotoxic Effect of Some Novel 1,2-Dihydropyridin-3-carbonitrile and Nicotinonitrile Derivatives” (Molecules, 2015).
